Measured values published in PubChem BioAssay AID2060892 (Molecular Pharmacology Branch, DTP, NCI, 2025).
Where “and” joins values, the source holds several entries; their conditions need not be identical. Equal entries are not always repeated.

System: HOP-62 complex spheroids with HUVEC/MSC, viability
Assay: Anticancer human tumor HOP-62 cell line growth inhibition [RAS];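 also: spheroids exposed to agents for seven days before readout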;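 as to viability, T/C: 100% = DMSO vehicle control viability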
Conditions: for viability, T/C: stronger effect = lower value
Source text: RAS pathway inhibitors in Combinations in Complex Spheroids
A high-throughput screen of multi-cell type tumor spheroids was designed to identify active combinations of RAS pathway inhibitors and targeted small molecules. Complex spheroids include a stromal component modeled by human endothelial cells (HUVEC) and fibroblasts modeled by human mesenchymal stem cells (MSCs). The concentration ranges selected for each drug and investigational agent were based upon clinically achievable concentrations if the clinical Cmax of the agent was known.
Compounds. The drugs and investigational agents: abemaciclib (NSC768073), cobimetinib (NSC768068), divarasib (GDC6063, NSC841802), docetaxel (NSC628503), GDC-1971 (RLY-1971, NSC841576), gemcitabine (NSC613327), inavolisib (NSC800729), ipatasertib (NSC767898), KB-0742 (NSC834161), MRTX-1133 (NSC836407), osimertinib (NSC779217), RMC-4630 (NSC839698), RMC-6236 (NSC851965), RMC-6291 (NSC852671), Ro-3306 (NSC812927), sapanisertib (NSC764658), SN-38 (NSC673596), staurosporine (NSC755774), SY5609 (NSC837396), and tovorafenib (DAY101, NSC766906), were obtained from the National Cancer Institute (NCI) Developmental Therapeutics Program Chemical Repository. The FDA-approved anticancer drug set is available from the NCI Developmental Therapeutics Program. […] The stock solutions were prepared in dimethyl sulfoxide (DMSO, Sigma-Aldrich, St. Louis, MO, cat. D2650) at 800-fold the tested concentration and stored at -70 degrees C prior to their use. All drugs and investigational agents were tested over a range starting from a high concentration at or near the clinical Cmax and decreasing in half-log increments. If the clinical Cmax for an agent had not been determined, the highest concentration tested was 10 microM.
Cell Culture. All cells were maintained in an incubator at 37 degrees C and 5% CO2 with 95% humidity. The PDC lines were cultured according to standard operating procedures established by the NCI PDMR. All PDCs were thawed and cultured in Matrigel-coated flasks prepared with a working solution of 1X Ham's F-12 nutrient mix, without supplementation (Invitrogen, Waltham, MA, cat. 11765054), 100 U/mL penicillin-streptomycin (Invitrogen, cat. 15140122), and 2.5% Matrigel (Corning Inc., Corning, NY, cat. 354248) for the first three passages. The 362531-283-R-J2-PDC and 782815-120-R-J1-PDC lines were cultured in 6C/Colon 1B media, which includes advanced DMEM/F-12 (Thermo Fisher Scientific, cat. 12634028), 10 mM HEPES (Thermo Fisher Scientific, cat. 15630080), 1X GlutaMAX supplement (Thermo Fisher Scientific, cat. 35050061), 0.1 mg/mL primocin (InvivoGen, San Diego, CA, cat. ant-pm-2), 10% defined fetal bovine serum, heat inactivated (HyClone Laboratories Inc., Logan, UT, cat. SH30070.03HI), 50% L-WRN conditioned media (ATCC, cat. CRL-3276), 1.25 mM N-Acetyl-L-cysteine (Sigma-Aldrich, cat. A9165), 10 mM nicotinamide (Sigma-Aldrich, cat. N0636), 1X B-27 supplement (Thermo Fisher Scientific, cat. 17504044), 1X N-2 supplement (Thermo Fisher Scientific, cat. 17502048), 50 ng/mL human EGF (Thermo Fisher Scientific, cat. PHG0311), and 10 microM Y-27632 dihydrochloride (Tocris Bioscience, cat. 1254). The K12877-001-R-J1-PDC line was cultured in 6I media, which includes all 6C/Colon 1B media plus 10 ng/mL human FGF-10 (PeproTech, cat. 100-26), 1 ng/mL human FGF-2 (PeproTech, cat. 100-18B), 1 µM prostaglandin E2 (Tocris Bioscience, cat. 2296), […] hydrocortisone (Sigma-Aldrich, cat. H4001), and […] bovine insulin (Sigma-Aldrich, cat. I6634). The K86415-001-R-J1-PDC line was cultured in 6D media, which includes all 6C/Colon 1B media components minus the L-WRN conditioned media. The 485176-168-R4-J1-PDC was cultured in PANC media, which includes all 6C/Colon 1B media plus 100 ng/mL human FGF-10 (PeproTech, cat. 100-26), 500 nM SB-431542 (Selleckchem, cat. S1067), and 10 nM gastrin (Tocris Bioscience, cat. 3006). […]

[1] = curve of first compound, second compound 0.0316 µM
[2] = curve of first compound, second compound 0.1 µM
[3] = curve of first compound, second compound 0.316 µM
[4] = curve of first compound, second compound 1 µM
[5] = curve of first compound, second compound 3.16 µM
[6] = curve of first compound, second compound 10 µM
[7] = second compound 0.0316 µM, first compound 0.00316 µM
[8] = second compound 0.0316 µM, first compound 0.01 µM
[9] = second compound 0.0316 µM, first compound 0.0316 µM
[10] = second compound 0.0316 µM, first compound 0.1 µM
[11] = second compound 0.0316 µM, first compound 0.316 µM
[12] = second compound 0.0316 µM, first compound 1 µM
[13] = second compound 0.1 µM, first compound 0.00316 µM
[14] = second compound 0.1 µM, first compound 0.01 µM
[15] = second compound 0.1 µM, first compound 0.0316 µM
[16] = second compound 0.1 µM, first compound 0.1 µM
[17] = second compound 0.1 µM, first compound 0.316 µM
[18] = second compound 0.1 µM, first compound 1 µM
[19] = second compound 0.316 µM, first compound 0.00316 µM
[20] = second compound 0.316 µM, first compound 0.01 µM
[21] = second compound 0.316 µM, first compound 0.0316 µM
[22] = second compound 0.316 µM, first compound 0.1 µM
[23] = second compound 0.316 µM, first compound 0.316 µM
[24] = second compound 0.316 µM, first compound 1 µM
[25] = second compound 1 µM, first compound 0.00316 µM
[26] = second compound 1 µM, first compound 0.01 µM
[27] = second compound 1 µM, first compound 0.0316 µM
[28] = second compound 1 µM, first compound 0.1 µM
[29] = second compound 1 µM, first compound 0.316 µM
[30] = second compound 1 µM, first compound 1 µM
[31] = second compound 3.16 µM, first compound 0.00316 µM
[32] = second compound 3.16 µM, first compound 0.01 µM
[33] = second compound 3.16 µM, first compound 0.0316 µM
[34] = second compound 3.16 µM, first compound 0.1 µM
[35] = second compound 3.16 µM, first compound 0.316 µM
[36] = second compound 3.16 µM, first compound 1 µM
[37] = second compound 10 µM, first compound 0.00316 µM
[38] = second compound 10 µM, first compound 0.01 µM
[39] = second compound 10 µM, first compound 0.0316 µM
[40] = second compound 10 µM, first compound 0.1 µM
[41] = second compound 10 µM, first compound 0.316 µM
[42] = second compound 10 µM, first compound 1 µM

CCN1CCN(Cc2ccc(Nc3ncc(F)c(-c4cc(F)c5nc(C)n(C(C)C)c5c4)n3)nc2)CC1 + C#Cc1c(F)ccc2cc(O)cc(-c3ncc4c(N5CC6CCC(C5)N6)nc(OCC56CCCN5CC(F)C6)nc4c3F)c12
IC50 [1]: > 1000 nM | IC50 [2]: > 1000 nM | IC50 [3]: > 1000 nM | IC50 [4]: > 1000 nM | IC50 [5]: > 1000 nM | IC50 [6]: < 3.16 nM | viability, T/C [7]: 119% | viability, T/C [8]: 105% | viability, T/C [9]: 101% | viability, T/C [10]: 90.6% | viability, T/C [11]: 95.8% | viability, T/C [12]: 88.1% | viability, T/C [13]: 111% | viability, T/C [14]: 103% | viability, T/C [15]: 89.8% | viability, T/C [16]: 91.6% | viability, T/C [17]: 89.3% | viability, T/C [18]: 66.2% | viability, T/C [19]: 109% | viability, T/C [20]: 102% | viability, T/C [21]: 96.3% | viability, T/C [22]: 86% | viability, T/C [23]: 90.2% | viability, T/C [24]: 81.2% | viability, T/C [25]: 106% | viability, T/C [26]: 99.6% | viability, T/C [27]: 90.7% | viability, T/C [28]: 82.3% | viability, T/C [29]: 83.2% | viability, T/C [30]: 67.7% | viability, T/C [31]: 84.5% | viability, T/C [32]: 76% | viability, T/C [33]: 69% | viability, T/C [34]: 57.9% | viability, T/C [35]: 62.5% | viability, T/C [36]: 57.7% | viability, T/C [37]: 46.4% | viability, T/C [38]: 48.3% | viability, T/C [39]: 38.3% | viability, T/C [40]: 45.7% | viability, T/C [41]: 45.2% | viability, T/C [42]: 42.5%

O=C(c1ccc(F)c(F)c1Nc1ccc(I)cc1F)N1CC(O)([C@@H]2CCCCN2)C1 + C#Cc1c(F)ccc2cc(O)cc(-c3ncc4c(N5CC6CCC(C5)N6)nc(OCC56CCCN5CC(F)C6)nc4c3F)c12
IC50 [1]: 122 nM | IC50 [2]: 149 nM | IC50 [3]: 141 nM | IC50 [4]: 106 nM | IC50 [5]: 42.1 nM | IC50 [6]: < 3.16 nM | viability, T/C [7]: 107% | viability, T/C [8]: 113% | viability, T/C [9]: 97.3% | viability, T/C [10]: 54.2% | viability, T/C [11]: 30.8% | viability, T/C [12]: 25.2% | viability, T/C [13]: 112% | viability, T/C [14]: 114% | viability, T/C [15]: 90.2% | viability, T/C [16]: 61% | viability, T/C [17]: 31.3% | viability, T/C [18]: 24% | viability, T/C [19]: 113% | viability, T/C [20]: 108% | viability, T/C [21]: 88.3% | viability, T/C [22]: 58.1% | viability, T/C [23]: 32.2% | viability, T/C [24]: 26.8% | viability, T/C [25]: 96.7% | viability, T/C [26]: 95.7% | viability, T/C [27]: 82% | viability, T/C [28]: 50.1% | viability, T/C [29]: 33.2% | viability, T/C [30]: 25.3% | viability, T/C [31]: 73.6% | viability, T/C [32]: 63.6% | viability, T/C [33]: 56.3% | viability, T/C [34]: 36.5% | viability, T/C [35]: 22.3% | viability, T/C [36]: 18.3% | viability, T/C [37]: 46.4% | viability, T/C [38]: 47.9% | viability, T/C [39]: 32.2% | viability, T/C [40]: 23.9% | viability, T/C [41]: 12.5% | viability, T/C [42]: 11.7%

NC1c2ccccc2OC12CCN(c1cnc3c(N4CCCc5ncccc54)n[nH]c3n1)CC2 (stereo not drawn)
viability, T/C (compound 0.0316 µM): 106% [middle of 4 runs] | IC50 (curve of compound): 4450 nM and > 10000 nM and 9130 nM

CCn1c(-c2cccnc2C(C)OC)c2c3cc(ccc31)N1CCOC(CC(NC(=O)C(C(C)C)N(C)C(=O)C3(F)CCN(C(=O)C#CC(C)(C)N(C)C)CC3)C(=O)N3CCCC(N3)C(=O)OCC(C)(C)C2)C1 (stereo not drawn)
viability, T/C (compound 0.000949 µM): 107% [middle of 8 runs] | viability, T/C (compound 0.003 µM): 99.7% [middle of 8 runs] | viability, T/C (compound 0.00949 µM): 90.7% [middle of 8 runs] | viability, T/C (compound 0.03 µM): 90.4% [middle of 8 runs] | viability, T/C (compound 0.0949 µM): 85.9% [middle of 8 runs] | viability, T/C (compound 0.3 µM): 83.2% [middle of 8 runs] | IC50 (compound alone, run of 07/09/2024): > 300 nM
